The text below walks through data of US20250161254A1, “USE OF RETINOIDS FOR TREATMENT OF ATRIAL FIBRILLATION” (NEW YORK UNIVERSITY, priority 2022, published 2025).

Entries after “also recorded” stand apart in the source; their conditions may differ.

In data set [1] the test system is TAC banded mice. Description: ECG dose-response of ATRA in TAC banded mice. The format is in vivo.
The test system of data set [2] is Mice deficient in ALDH1A2. The conditions noted are these: maternal supplementation with oral ATRA; cited from earlier work.
In data set [3] the test system is dissociated neonatal rat cardiac fibroblasts. The settings on record: fibroblasts exposed to AngII; cited from earlier work.
For data set [4], the system named is TAC banded hearts. Put plainly: Optical mapping of Langendorff-perfused hearts. It counts as ex vivo, mice. The settings on record: Sham+V, TAC+V and TAC+ATRA hearts compared. The procedure:
Optical mapping of Langendorff-perfused hearts from Sham+V, TAC+V, and TAC+ATRA hearts. (FIG. 6A) Representative left atrial activation maps at 37° C. Hearts were paced at 100 ms basic cycle length (BCL) from the right atria. (FIG. 6B) Calculated LA conduction velocity (CV). (FIG. 6C) Calculated left ventricular CV (FIG. 6D) ECG tracing of sustained atrial arrythmia in TAC+V heart after atrial burst pacing protocol.^6 (FIG. 6E) Left atrial activation map of sustained atrial arrythmia shown in panel (FIG. 6D). Isochrones are drawn 1 ms apart. Data represent mean+S.E.M. n=4-5 per group. One-way ANOVA was used followed by Tukey's test for multiple comparisons to compare differences between experimental groups. * p-value<0.05, ** p-value<0.005, *** p-value<0.001, **** p-value<0.0001

The test system of data set [5] is trans-aortic constriction (TAC) banded mice. Put plainly: Transthoracic echocardiography in TAC banded mice, ATRA protection study. The format is in vivo. The procedure: (§1) TAC banding creates a fixed afterload obstruction in the systemic circulation and serves as an excellent model for drug testing as the surgically-induced coarctation cannot be reversed by medical therapy.
The effect of TAC banding on left atrial function was measured next by using reservoir strain analysis. 8,30 Left atrial reservoir strain analysis is a sensitive modality to study left atrial mechanics of both relaxation (conduit strain) and contraction (contractile strain) in an angle-independent fashion.

A further data set concerns TLR/NF-KB signaling. The settings on record: diabetic kidney; cited from earlier work.
Data set [6] has as its system TAC banded mice. Put plainly: ECG in ATRA reversal study (delayed ATRA initiation). The format is in vivo. The settings on record: TAC+dATRA vs TAC+dV.
Data set [7] deals with LA samples from TAC banded hearts. Description: RNA-seq on LA samples from TAC+V and TAC+ATRA hearts. The format is in vivo, mice. The text has this: Activation of the AngII signaling pathway in the LA from pressure overload is a powerful inducer of inflammation, fibrosis, and Cx43 gap junction remodeling. Blockade of AngII signaling can reduce atrial fibrosis and partially rescued Cx43 remodeling. ^38,39

Data set [8] relates to trans-aortic constriction (TAC) banded mice. Description: Electrocardiogram in TAC banded mice, ATRA protection study. The settings on record: two weeks. It counts as in vivo.
Description: as §1
On ECG, the P wave duration is a measure of atrial activation time, the PR interval is a measure of atrial-to-ventricular activation time that includes the atrio-ventricular nodal conduction time, the QRS duration is a measure of ventricular activation time, and the HR-corrected QT (QTc) interval is a measure of ventricular repolarization time. […] In TAC banded mice treated with vehicle control (TAC+V), the heart rate (HR) was increased, the P wave, QRS wave, and QTc interval durations were prolonged, and the PR interval was shortened compared to Sham groups.

The subject of the next data set is chick embryos. The conditions noted are these: excess ATRA; cited from earlier work.
The subject of data set [9] is TAC banded mice. Put plainly: LA fibrosis burden in ATRA reversal study (delayed ATRA initiation). The settings on record: delayed treatment with ATRA, TAC banding.
In data set [10] the test system is TAC banded hearts. Description: Atrial arrhythmia inducibility by atrial burst pacing. It counts as in vivo, mice. The settings on record: TAC+ATRA hearts.
A further data set deals with guinea pig HF model. The settings on record: cited from earlier work.
Data set [11] deals with TAC banded mice. Description: Left atrial fibrosis burden, ImageJ analysis on Masson's trichrome stained sections. It counts as in vivo. The settings on record: for collagen volume fraction in LA: 10 mg/kg/day IP, two weeks.
Description: as §1

The next data set concerns CYP26. The settings on record: rodents; cited from earlier work.
For another data set, the system named is ALDHIA1 and ALDH1A2. The settings on record: in vivo; cited from earlier work.
The mark [12] stands for this setting: TAC+ATRA vs TAC+V over the dose range.
[13] abbreviates: TAC+ATRA vs TAC+V, 10 mg/kg/day IP, two weeks, 10 mg/kg/day.
Where [14] appears, read: GO / REACTOME analysis of normalized genes.
Where [15] appears, read: TAC+ATRA versus TAC+V LA, P<0.05.
Setting [16] is: TAC+ATRA vs TAC+V, ATRA 10 mg/kg/day IP.

As to `CC1=C(/C=C/C(C)=C/C=C/C(C)=C/C(=O)O)C(C)(C)CCC1` [ATRA, all-trans retinoic acid], the “P wave duration shortening” value in the data set on TAC banded mice [1] (20 mg/kg dose compared with 10) was “no further shortening”. Also, the “reduction of P wave prolongation, dose dependence” value in the data set with TAC banded mice [1] (2, 5, 10, 20 mg/kg daily IP, two weeks) is “dose-dependent fashion”. Moreover, the “ventricular ectopy (potential cardiotoxicity)” value in the data set on TAC banded mice [1] (ATRA 20 mg/kg daily IP) is “increased ventricular ectopy”. In the data set on TAC banded mice [1] (setting [12]), the PR interval result was “no significant dose-dependent effect; also recorded: not significantly changed”, the QRS duration result was “no significant dose-dependent effect; also recorded: not significantly changed” and the heart rate entry is on record as “no significant dose-dependent effect; also recorded: not significantly changed”. In addition, the “ATRA dose of maximal P wave duration shortening” value with TAC banded mice [1] (daily IP, two weeks) is recorded as 10 m/kg. For the same compound, the atrial defects entry in [2] is “rescue the atrial defects”. For the same compound, in data set [3], the TGF-β production entry was “reduces”, the collagen secretion result is “reduces” and the proliferation entry is recorded as “reduces”. In addition, the “left ventricular CV” value with TAC banded hearts [4] is recorded as “not significantly different”. Besides, in [5] (Sham+ATRA vs Sham+V, normal pressure conditions), the “echocardiographic measurements of the LA and LV” value is recorded as “no differences”. Moreover, in [5] (setting [13]), the “LV fractional shortening (FS)” value is on record as “equally reduced”; the LV longitudinal strain entry was “equally reduced”; the “left atrial mechanics (reservoir strain)” value is “significant improvement; also recorded: significantly improved”; the “left ventricular hypertrophy (LV wall thickness)” value is “increased in both TAC+V and TAC+ATRA cohorts”. The “production of inflammatory cytokines, chemokines, adhesion molecules and growth factors” value with TLR/NF-KB signaling is “block cytokine, chemokine, and growth factor production; also recorded: blocks production”. Moreover, the P wave duration result with TAC banded mice [6] (10 mg/kg/day IP started two weeks post-TAC, for two weeks, 10 mg/kg/day) is recorded as “significantly reduces”. For the same compound, in the data set on TAC banded mice [6] (delayed treatment), the PR interval result is listed as “not significantly different; also recorded: unchanged”, the QRS duration entry is given as “not significantly different; also recorded: unchanged”, the QTc interval result is “not significantly different; also recorded: unchanged” and the “heart rate (HR)” value is on record as “unchanged”. Besides, in [7] (setting [14]), the “pathways of ECM production, pro-inflammatory signaling and vasoconstriction” value is reported as “significantly downregulated”; the “pathways of mitochondrial energy production and cardiac/atrial development” value is “significantly upregulated”. In [7] (TAC banded hearts), the “left atrial Scn5a expression” value is on record as “increases”. In [7] (setting [15]), the differentially expressed transcripts worked out at 4133 transcripts, the transcripts downregulated was 2058 transcripts and the transcripts upregulated is recorded as 2075 transcripts. Also, in [7] ([TAC+ATRA vs TAC+V] dataset), the “DEGs moving in reciprocal direction to the [TAC vs Sham] dataset (normalization)” value is on record as 1987 DEGs. For the same compound, in data set [7] (pressure overloaded LA), the “expression of PDGF-A and PDGF-B” value is given as “reduced expression”; the “expression of TLR2, NF-KB signaling components, NLRP3 and IL-1b” value was “downregulated”; the “expression of angiotensin converting enzyme (ACE)” value was “significantly downregulated”. The ECG measurements result in data set [8] (Sham+ATRA vs Sham+V, normal pressure conditions, 10 mg/kg/day IP) is listed as “no differences”. In data set [8] (setting [16]), the “HR-corrected QT (QTc) interval” value was “prolonged equally; also recorded: unchanged”, the P wave duration entry is listed as “prevents P wave prolongation; also recorded: reduced to normal levels”, the PR interval result is given as “does not significantly alter; also recorded: unchanged” and the QRS duration result was “prolonged equally; also recorded: unchanged”. Besides, in data set [8] (setting [16]), the “heart rate (HR)” value is on record as “unchanged”. In the data set with chick embryos, the atrial size result is “developed enlarged atria”. For the same compound, the “interstitial and perivascular fibrosis” value with TAC banded mice [9] is reported as “reverses”. In addition, the “hearts with sustained atrial arrhythmia (lasting >30 sec) after atrial burst pacing” value with TAC banded hearts [10] is reported as 0 out of 3. Moreover, in the data set on guinea pig HF model, the “left ventricular systolic function” value is recorded as “improve” and the ventricular fibrosis result is given as “reduce”. In addition, the “collagen volume fraction in LA” value in the data set on TAC banded mice [11] (Sham+ATRA) was 5.3±0.1%. In the data set with TAC banded mice [11] (TAC+ATRA vs TAC+V), the “left atrial interstitial and perivascular fibrosis” value is recorded as “reduced; also recorded: limits”. Moreover, the “collagen volume fraction in LA” value with TAC banded mice [11] (TAC+ATRA) amounted to 8.3±0.6%.

As for `CCC(CC)C(c1ccc(Nc2nc3ccccc3s2)cc1)n1cncn1` (stereo not shown) [talarozole], the ATRA levels entry with CYP26 is listed as “effectively increase ATRA levels”.

As for `O=C(NCCCCCCCCNC(=O)C(Cl)Cl)C(Cl)Cl` [WIN18446], in the data set with ALDHIA1 and ALDH1A2, the ATRA biosynthesis result is “efficiently block ATRA biosynthesis”.
